For one assay, the target named is T1, hCA IX (Homo sapiens, UniProt Q16790).
T1 construct: gene CA9; recombinant, transmembrane isoform
In words: stopped-flow CO2 hydration. Type of assay: biochemical. The procedure, abridged:
(§1)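 Each recombinant human isozyme was held with inhibitor for 10 min at room temperature before a stopped-flow assay of CO2 hydration at 25 °C. The buffer was 10 mM Hepes pH 7.4 with 0.1 M Na2SO4 or NaClO4 and 0.2 mM Phenol Red read at 557 nm over 5–10 s, and CO2-saturated water served as substrate. Ki constants come from non-linear least-squares fits using the Cheng-Prusoff equation. At least seven inhibitor concentrations, the lowest 0.01 nM, were tested in triplicate, and values are means of at least three determinations.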

The next assay addresses T2, hCA I (Homo sapiens, UniProt P00915).
T2 construct: gene CA1; recombinant, cytosolic isoform
In words: stopped-flow CO2 hydration. Type of assay: biochemical. The procedure, abridged:
as §1

In another assay the target is T3, hCA II (Homo sapiens, UniProt P00918).
T3 construct: gene CA2; recombinant, cytosolic isoform
In words: stopped-flow CO2 hydration. Type of assay: biochemical. The conditions noted are these: read-out: hCAII. The procedure, abridged: as §1

The target of assay [1] is T4, hCA IV (Homo sapiens, UniProt P22748).
T4 construct: gene CA4
In words: biochemical. Also on record: Stopped-flow CO2 hydration assay, phenol red at 557 nm, 10 min preincubation, recombinant hCA; Ki via Cheng-Prusoff. Here is the method: An SX.18 MV-R Applied Photophysics (Oxford, UK) stopped-flow instrument has been used for assaying the CA catalyzed CO2 hydration activity. Phenol Red (at a concentration of 0.2 mM) has been used as indicator, working at the absorbance maximum of 557 nm, with 10 mM Hepes (pH 7.4) as buffer, 0.1 M Na2SO4 or NaClO4 (for maintaining constant the ionic strength; these anions are not inhibitory in the used concentration), following the CA-catalyzed CO2 hydration reaction for a period of 5–10 s. Saturated CO2 solutions in water at 25 °C were used as substrate. Stock solutions of inhibitors were prepared at a concentration of 10 μM (in DMSO-water 1:1, v/v) and dilutions up to 0.01 nM done with the assay buffer mentioned above. At least seven different inhibitor concentrations have been used for measuring the inhibition constant. Inhibitor and enzyme solutions were preincubated together for 10 min at room temperature prior to assay, in order to allow for the formation of the E-I complex. Triplicate experiments were done for each inhibitor concentration, and the values reported throughout the paper are the mean of such results. The inhibition constants were obtained by non-linear least-squares methods using the Cheng-Prusoff equation, as reported earlier, and represent the mean from at least three different determinations. All CA isozymes used here were recombinant proteins obtained as reported earlier by our group[10]^c,[25]^,[26]. The newly synthesised compounds 3-sulfamoylbenzamide linked 1,2,3-triazoles (Figure 4) (6a–z) as well as the intermediates (3a–d) and (4a–d) (listed in Table 1) were screened for their CA inhibitory activities against four physiologically significant isoforms, the cytosolic hCA I (associated with edema) and II (associated with glaucoma) as well as the membrane bound hCA IV (associated with glaucoma and retinitis pigmentosa) and transmembrane hCA IX (associated with tumors) by means of the stopped flow carbon dioxide assays[29] in comparison to AAZ as standard CAI (Table 2).

Assay [2] has as its target T4, hCA IV. Nature of the assay: stopped-flow CO2 hydration. Format: biochemical. The essentials: as §1
Setting [3] is: CO2 substrate, pH […] Hepes, […] °C, […] min preincubation.

Like-named read-outs stand apart in the source and are kept apart here.

T4 sequence (P22748 19-284): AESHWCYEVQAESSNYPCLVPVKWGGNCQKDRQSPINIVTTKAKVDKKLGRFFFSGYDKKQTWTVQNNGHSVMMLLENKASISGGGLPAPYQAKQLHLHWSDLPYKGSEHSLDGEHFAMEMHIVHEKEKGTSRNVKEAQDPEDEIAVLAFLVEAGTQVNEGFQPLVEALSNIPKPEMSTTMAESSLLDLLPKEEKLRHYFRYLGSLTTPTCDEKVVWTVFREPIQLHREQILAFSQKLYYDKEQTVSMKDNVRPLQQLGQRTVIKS
T2 sequence (P00915 2-261): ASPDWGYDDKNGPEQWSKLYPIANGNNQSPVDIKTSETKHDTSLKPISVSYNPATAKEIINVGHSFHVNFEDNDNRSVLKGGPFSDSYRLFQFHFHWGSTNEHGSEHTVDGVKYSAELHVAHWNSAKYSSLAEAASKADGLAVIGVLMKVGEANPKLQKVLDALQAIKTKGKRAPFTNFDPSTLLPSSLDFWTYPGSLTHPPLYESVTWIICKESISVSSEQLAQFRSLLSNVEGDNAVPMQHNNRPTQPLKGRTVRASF

For the molecule `NS(=O)(=O)c1cccc(C(=O)O)c1` [3a, 3-Sulfamoylbenzoic acid], the Ki on hCA IX came to 9.42 µM; at hCA I it was 8.77 µM; at hCA II, 8.66 µM.

Take `NS(=O)(=O)c1cc(C(=O)O)ccc1Cl` [3b, 4-Chloro-3-sulfamoylbenzoic acid]: the Ki was found to be 8.98 µM on hCA IX, 8.85 µM at hCA I, 1.38 µM at hCA II and 2.47 µM on hCA IV [1].

As for `NS(=O)(=O)c1cc(C(=O)O)ccc1F` [3c, 4-Fluoro-3-sulfamoylbenzoic acid], the Ki at hCA IX came out at 9.57 µM; on hCA I, 5.75 µM; on hCA II it was 0.76 µM; on hCA IV [1], 0.958 µM.

For `COc1ccc(C(=O)O)cc1S(N)(=O)=O` [3d, 4-Methoxy-3-sulfamoylbenzoic acid], the Ki on hCA IX came to 9.67 µM; at hCA I it was 9.76 µM; at hCA II, 9.18 µM; on hCA IV [1], 8.78 µM.

Regarding `C#CCNC(=O)c1cccc(S(N)(=O)=O)c1` [4a, N-(prop-2-yn-1-yl)-3-sulfamoylbenzamide], the Ki turned out to be 9.36 µM on hCA IX, 9.28 µM on hCA I, 0.514 µM on hCA II and 8.46 µM at hCA IV [1].

In the case of `C#CCNC(=O)c1ccc(Cl)c(S(N)(=O)=O)c1` [4b, 4-Chloro-N-(prop-2-yn-1-yl)-3-sulfamoylbenzamide], the Ki at hCA IV [2] was found to be 0.0788 µM; at hCA IX, 0.447 µM; at hCA I, 4.93 µM; on hCA II, 0.0735 µM.

Take `C#CCNC(=O)c1ccc(F)c(S(N)(=O)=O)c1` [4c, 4-Fluoro-N-(prop-2-yn-1-yl)-3-sulfamoylbenzamide]: the Ki was 0.429 µM on hCA IV [2], 0.816 µM at hCA IX, 0.747 µM at hCA I and 0.165 µM on hCA II.

In the case of `C#CCNC(=O)c1ccc(OC)c(S(N)(=O)=O)c1` [4d, 4-Methoxy-N-(prop-2-yn-1-yl)-3-sulfamoylbenzamide], the Ki was 9.22 µM on hCA IX, 9.5 µM at hCA I, 5.53 µM on hCA II and 6.84 µM at hCA IV [1].

For the molecule `NS(=O)(=O)c1cccc(C(=O)NCc2cn(-c3ccccc3)nn2)c1` [6a, N-((1-phenyl-1H-1,2,3-triazol-4-yl)methyl)-3-sulfamoylbenzamide], the Ki is 7.98 µM on hCA IX, 0.753 µM at hCA I, 4.49 µM at hCA II and 9.42 µM at hCA IV [1].

For the molecule `COc1cc(-n2cc(CNC(=O)c3cccc(S(N)(=O)=O)c3)nn2)cc(OC)c1OC` [6b, 3-Sulfamoyl-N-((1–(3,4,5-trimethoxyphenyl)-1H-1,2,3-triazol-4-yl)methyl)benzamide], the Ki at hCA IX was found to be 4.9 µM; on hCA I, 0.855 µM; at hCA II it was 8.97 µM.

As for `NS(=O)(=O)c1cccc(C(=O)NCc2cn(-c3cccc([N+](=O)[O-])c3)nn2)c1` [6c, N-((1–(3-nitrophenyl)-1H-1,2,3-triazol-4-yl)methyl)-3-sulfamoylbenzamide], the Ki turned out to be 6.92 µM at hCA IX, 0.952 µM on hCA I and 9.27 µM at hCA II.

For `NS(=O)(=O)c1cccc(C(=O)NCc2cn(-c3cccc(F)c3)nn2)c1` [6d, N-((1–(3-fluorophenyl)-1H-1,2,3-triazol-4-yl)methyl)-3-sulfamoylbenzamide], the Ki on hCA IX is 7.42 µM; at hCA I, 0.867 µM; on hCA II, 2.97 µM; on hCA IV [1] it was 8.84 µM.

`N#Cc1cccc(-n2cc(CNC(=O)c3cccc(S(N)(=O)=O)c3)nn2)c1` [6e, N-((1–(3-cyanophenyl)-1H-1,2,3-triazol-4-yl)methyl)-3-sulfamoylbenzamide]: the Ki on hCA IX was determined as 3.19 µM; at hCA I it was 0.431 µM; at hCA II it was 2.36 µM; on hCA IV [1], 9.3 µM.

For the molecule `COc1ccc(-n2cc(CNC(=O)c3cccc(S(N)(=O)=O)c3)nn2)cc1` [6f, N-((1–(4-methoxyphenyl)-1H-1,2,3-triazol-4-yl)methyl)-3-sulfamoylbenzamide], the Ki stood at 6.75 µM on hCA IX (setting [3]), 0.888 µM at hCA I (setting [3]) and 9.01 µM on hCA II (setting [3]).

Consider `Cc1cccc(-n2cc(CNC(=O)c3cccc(S(N)(=O)=O)c3)nn2)c1C` [6g, N-((1–(2,3-dimethylphenyl)-1H-1,2,3-triazol-4-yl)methyl)-3-sulfamoylbenzamide], for which the Ki was determined as 6.13 µM on hCA IX, 0.448 µM on hCA I, 0.366 µM at hCA II and 8.58 µM on hCA IV [1].

`Cc1ccc(-n2cc(CNC(=O)c3cccc(S(N)(=O)=O)c3)nn2)c(C)c1` [6h, N-((1–(2,4-dimethylphenyl)-1H-1,2,3-triazol-4-yl)methyl)-3-sulfamoylbenzamide]: the Ki at hCA IX was determined as 0.226 µM; at hCA I it was 0.693 µM; at hCA II, 0.516 µM; at hCA IV [1] it was 1.76 µM.

On to `NS(=O)(=O)c1cc(C(=O)NCc2cn(-c3ccccc3)nn2)ccc1Cl` [6i, 4-Chloro-N-((1-phenyl-1H-1,2,3-triazol-4-yl)methyl)-3-sulfamoylbenzamide], for which the Ki on hCA IV [2] is 0.17 µM; at hCA IX, 0.0844 µM; at hCA I it was 0.312 µM; on hCA II, 0.0712 µM.

Regarding `COc1cc(-n2cc(CNC(=O)c3ccc(Cl)c(S(N)(=O)=O)c3)nn2)cc(OC)c1OC` [6j, 4-Chloro-3-sulfamoyl-N-((1–(3,4,5-trimethoxyphenyl)-1H-1,2,3-triazol-4-yl)methyl)-benzamide], the Ki at hCA IV [2] amounted to 2.28 µM; at hCA IX it was 0.212 µM; on hCA I, 0.479 µM; at hCA II, 0.0514 µM.

As for `COc1ccc(-n2cc(CNC(=O)c3ccc(Cl)c(S(N)(=O)=O)c3)nn2)cc1` [6k, 4-Chloro-N-((1–(4-methoxyphenyl)-1H-1,2,3-triazol-4-yl)methyl)-3-sulfamoylbenzamide], the Ki at hCA IV [2] amounted to 0.08 µM; on hCA IX, 0.0416 µM; at hCA I, 0.0867 µM; on hCA II it was 0.0565 µM.

For `COc1ccc(C(=O)NCc2cn(-c3ccccc3)nn2)cc1S(N)(=O)=O` [6u, 4-Methoxy-N-((1-phenyl-1H-1,2,3-triazol-4-yl)methyl)-3-sulfamoylbenzamide], the Ki is 0.703 µM at hCA IX, 0.681 µM on hCA I, 2.9 µM at hCA II and 9.35 µM at hCA IV [1].

Regarding `COc1ccc(C(=O)NCc2cn(-c3ccc(F)cc3)nn2)cc1S(N)(=O)=O` [6v, N-((1–(4-fluorophenyl)-1H-1,2,3-triazol-4-yl)methyl)-4-methoxy-3-sulfamoylbenzamide], the Ki on hCA IX was 6.82 µM; at hCA I, 0.572 µM; on hCA II it was 9.65 µM; at hCA IV [1], 5.35 µM.

For `COc1ccc(C(=O)NCc2cn(-c3ccc(C)cc3)nn2)cc1S(N)(=O)=O` [6w, 4-Methoxy-3-sulfamoyl-N-((1-(p-tolyl)-1H-1,2,3-triazol-4-yl)methyl)benzamide], the Ki at hCA IX turned out to be 0.526 µM; on hCA I it was 0.967 µM; on hCA II, 4.16 µM; at hCA IV [1], 7.62 µM.

`COc1ccc(C(=O)NCc2cn(-c3ccc(C)cc3C)nn2)cc1S(N)(=O)=O` [6x, N-((1–(2,4-dimethylphenyl)-1H-1,2,3-triazol-4-yl)methyl)-4-methoxy-3-sulfamoylbenzamide]: the Ki on hCA IX is 0.0938 µM; at hCA I, 7.56 µM; at hCA II, 6.39 µM; at hCA IV [1], 9.34 µM.

Turning to `COc1ccc(C(=O)NCc2cn(-c3ccc(Br)cc3)nn2)cc1S(N)(=O)=O` [6y, N-((1–(4-bromophenyl)-1H-1,2,3-triazol-4-yl)methyl)-4-methoxy-3-sulfamoylbenzamide], the Ki came out at 1.87 µM on hCA IX, 0.555 µM at hCA I, 2.33 µM on hCA II and 9.08 µM at hCA IV [1].

Turning to `COc1ccccc1-n1cc(CNC(=O)c2ccc(OC)c(S(N)(=O)=O)c2)nn1` [6z, 4-Methoxy-N-((1–(2-methoxyphenyl)-1H-1,2,3-triazol-4-yl)methyl)-3-sulfamoylbenzamide], the Ki at hCA IX is 0.768 µM; at hCA I, 0.952 µM; at hCA II, 5.37 µM; at hCA IV [1], 8.93 µM.

Source of the values: publication PMC6598542, “Synthesis of a new series of 3-functionalised-1-phenyl-1,2,3-triazole sulfamoylbenzamides as carbonic anhydrase I, II, IV and IX inhibitors” (Journal of Enzyme Inhibition and Medicinal Chemistry, 2019).
